Assay results reported in US20250281515A1, “CARBORANE COMPOUNDS, CARBORANE ANALOGS, AND METHODS OF USE THEREOF” (Ohio State Innovation Foundation, priority 2018, published 2025).
Several values for one entry are separate records, joined by “and”; a condition that tells them apart may be missing. Equal values may be shown once. Read-outs that look alike come from different tables or passages of the source.

How the values were obtained:
Human full-length ERβ = biological target: T1, Human full-length ERβ (Homo sapiens, UniProt Q92731); test: ERβ cell-based luciferase reporter assay, agonist mode
T1 construct: expression vector encoding human full-length ERα or ERβ; expressed in transfected cells; host or cells: HEK293, transiently transfected
T1 sequence (Q92731 whole entry): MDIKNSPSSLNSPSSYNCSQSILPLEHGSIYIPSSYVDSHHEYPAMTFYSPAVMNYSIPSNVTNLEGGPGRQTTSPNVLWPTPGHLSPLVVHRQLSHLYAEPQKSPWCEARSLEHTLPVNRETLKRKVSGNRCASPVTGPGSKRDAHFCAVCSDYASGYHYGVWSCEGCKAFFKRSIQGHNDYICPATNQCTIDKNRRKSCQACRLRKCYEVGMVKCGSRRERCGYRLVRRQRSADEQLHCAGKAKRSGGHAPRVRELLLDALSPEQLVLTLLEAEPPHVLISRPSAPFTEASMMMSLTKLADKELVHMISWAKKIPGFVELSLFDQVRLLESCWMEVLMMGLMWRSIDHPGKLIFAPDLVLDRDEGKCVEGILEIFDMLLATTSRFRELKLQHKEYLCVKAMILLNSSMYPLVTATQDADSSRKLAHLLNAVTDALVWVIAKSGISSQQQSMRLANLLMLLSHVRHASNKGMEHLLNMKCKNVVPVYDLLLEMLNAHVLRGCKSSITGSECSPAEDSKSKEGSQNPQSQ
Experimental: (§1) The selectivity and potency of the various compounds was carried out via in vitro testing in ERα and ERβ cell-based reporter assays. The activity of the selected compounds was determined in the cell-based reporter assays in HEK293 cells.
(§2) The HEK293 cells were propagated in a monolayer in phenol red-free DMEM supplemented with 10% fetal bovine serum, 2 mM Glutamax and penicillin/streptomycin (Thermo Fisher Scientific, MA, USA) and incubated in a 5% CO2 humidified atmosphere at 37° C. Right before transfection, the growth medium was changed to phenol red-free DMEM supplemented with 4% HyClone Fetal Bovine Serum, Charcoal/Dextran Treated (GE Healthcare Life Sciences, USA) and 2 mM Glutamax (starvation medium). The cells were transfected with the expression vector encoding human full-length ERα or ERβ and with the reporter vector containing 3 repeats of estrogen responsive elements (ERE) followed by the minimal thymidine kinase promoter from the herpes simplex virus in the pGL4 vector (Promega, USA). Luciferase served as a reporter gene. The transfection was carried out in 10 cm dishes (Nunc) in the starvation medium. After 24 hours, the cells were trypsinized, counted and seeded to cell culture treated, white, solid 1536-well plates (Corning Inc., NY, USA) at 1500 cells/well in 4 μl of total media volume. The compounds to be tested were diluted in DMSO and transferred to the cells using an acoustic dispenser Echo 520 (Labcyte). The compounds were tested at least at 12 different concentration points in the range from […] to 100 μM, in triplicates. Luciferase activity was determined after 24 hours of incubation with compounds with Britelite plus luciferase reporter gene assay reagent (Perkin Elmer, USA), according to the manufacturer protocol. The luciferase signal was measured on an Envison multimode plate reader (Perkin Elmer, USA). Data were collected and processed using an in-house built LIMS system ScreenX and GraphPad Prism software. EC50 values were calculated using a regression function (dose response, variable slope).
(§3) The selectivity and potency of various example compounds in the second library was carried out via in vitro testing in ERα and ERβ cell-based reporter assays.

Human full-length ERα = biological target: T2, Human full-length ERα (Homo sapiens, UniProt P03372); test: ERα cell-based luciferase reporter assay, agonist mode; conditions: for EC50: Table 8, second library, read-out: ERα agonism EC50
T2 construct: expression vector encoding human full-length ERα or ERβ; expressed in transfected cells; host or cells: HEK293, transiently transfected
T2 sequence (P03372 1-595): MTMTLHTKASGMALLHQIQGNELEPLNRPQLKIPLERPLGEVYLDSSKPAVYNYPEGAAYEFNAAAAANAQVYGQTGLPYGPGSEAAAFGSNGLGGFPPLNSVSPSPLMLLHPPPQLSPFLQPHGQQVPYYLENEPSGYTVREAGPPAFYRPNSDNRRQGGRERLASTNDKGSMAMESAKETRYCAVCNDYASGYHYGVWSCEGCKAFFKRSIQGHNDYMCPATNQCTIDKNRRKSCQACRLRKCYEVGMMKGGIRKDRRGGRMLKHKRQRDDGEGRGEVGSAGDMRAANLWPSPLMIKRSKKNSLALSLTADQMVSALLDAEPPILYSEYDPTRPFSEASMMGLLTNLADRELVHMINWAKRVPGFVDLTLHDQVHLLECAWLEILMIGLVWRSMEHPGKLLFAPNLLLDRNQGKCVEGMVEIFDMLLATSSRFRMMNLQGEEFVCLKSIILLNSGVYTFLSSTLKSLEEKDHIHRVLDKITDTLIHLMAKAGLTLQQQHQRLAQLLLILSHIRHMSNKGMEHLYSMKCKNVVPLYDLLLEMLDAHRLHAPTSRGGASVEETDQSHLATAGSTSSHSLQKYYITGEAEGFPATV
Experimental: as §1, §2, §3

Human full-length GR = biological target: T3, Human full-length GR (Homo sapiens, UniProt P04150); test: GR cell-based luciferase reporter assay, agonist and antagonist mode; conditions: U2OS stable reporter cells; antagonist mode with 10 nM dexamethasone; concentration range tested 100 μM to 100 μM (so in the source)
T3 sequence (P04150 1-777): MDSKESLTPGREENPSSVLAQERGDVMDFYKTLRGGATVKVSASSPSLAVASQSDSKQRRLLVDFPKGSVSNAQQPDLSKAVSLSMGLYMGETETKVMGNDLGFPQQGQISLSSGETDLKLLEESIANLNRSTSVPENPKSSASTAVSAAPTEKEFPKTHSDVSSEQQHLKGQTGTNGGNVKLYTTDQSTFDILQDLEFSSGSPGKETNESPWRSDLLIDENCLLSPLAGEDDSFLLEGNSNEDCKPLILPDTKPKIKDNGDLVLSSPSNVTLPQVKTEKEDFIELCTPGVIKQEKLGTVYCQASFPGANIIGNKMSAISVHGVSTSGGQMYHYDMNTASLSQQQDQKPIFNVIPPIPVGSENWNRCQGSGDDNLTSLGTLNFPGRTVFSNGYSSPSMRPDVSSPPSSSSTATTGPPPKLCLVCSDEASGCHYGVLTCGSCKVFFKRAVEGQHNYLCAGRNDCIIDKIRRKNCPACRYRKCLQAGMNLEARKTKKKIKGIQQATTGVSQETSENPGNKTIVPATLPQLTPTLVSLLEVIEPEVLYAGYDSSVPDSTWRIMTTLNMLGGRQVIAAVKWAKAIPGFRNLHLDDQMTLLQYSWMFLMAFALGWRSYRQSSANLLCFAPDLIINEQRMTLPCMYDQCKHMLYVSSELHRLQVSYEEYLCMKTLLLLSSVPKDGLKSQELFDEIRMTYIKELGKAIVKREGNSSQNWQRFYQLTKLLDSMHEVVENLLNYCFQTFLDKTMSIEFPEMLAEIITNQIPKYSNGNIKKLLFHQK

HEK293 cells = test: HEK293 viability assay (ATPlite 1step); assay type: cell-based, human; conditions: non-transfected HEK293, 24 h, ATP level; Trial 2; Low = activity too low for exact value
Experimental: The non-transfected HEK293 cells were seeded to the 384-well plates at 5000 cell/well, compounds were added and the timing of all subsequent steps was exactly the same as in the reporter assays. […] After 24 h of compound incubation with cells, the viability of cells was measured by determining the ATP level in the samples using luciferase cell viability assay, ATPlite 1step (Perkin Elmer, USA).

Human full-length AR = biological target: T4, Human full-length AR (Homo sapiens, UniProt P10275); test: AR cell-based luciferase reporter assay, agonist and antagonist mode; conditions: U2OS stable reporter cells; antagonist mode with 2 nM DHT; concentration range tested 100 μM to 100 μM (so in the source)
T4 sequence (P10275 1-920): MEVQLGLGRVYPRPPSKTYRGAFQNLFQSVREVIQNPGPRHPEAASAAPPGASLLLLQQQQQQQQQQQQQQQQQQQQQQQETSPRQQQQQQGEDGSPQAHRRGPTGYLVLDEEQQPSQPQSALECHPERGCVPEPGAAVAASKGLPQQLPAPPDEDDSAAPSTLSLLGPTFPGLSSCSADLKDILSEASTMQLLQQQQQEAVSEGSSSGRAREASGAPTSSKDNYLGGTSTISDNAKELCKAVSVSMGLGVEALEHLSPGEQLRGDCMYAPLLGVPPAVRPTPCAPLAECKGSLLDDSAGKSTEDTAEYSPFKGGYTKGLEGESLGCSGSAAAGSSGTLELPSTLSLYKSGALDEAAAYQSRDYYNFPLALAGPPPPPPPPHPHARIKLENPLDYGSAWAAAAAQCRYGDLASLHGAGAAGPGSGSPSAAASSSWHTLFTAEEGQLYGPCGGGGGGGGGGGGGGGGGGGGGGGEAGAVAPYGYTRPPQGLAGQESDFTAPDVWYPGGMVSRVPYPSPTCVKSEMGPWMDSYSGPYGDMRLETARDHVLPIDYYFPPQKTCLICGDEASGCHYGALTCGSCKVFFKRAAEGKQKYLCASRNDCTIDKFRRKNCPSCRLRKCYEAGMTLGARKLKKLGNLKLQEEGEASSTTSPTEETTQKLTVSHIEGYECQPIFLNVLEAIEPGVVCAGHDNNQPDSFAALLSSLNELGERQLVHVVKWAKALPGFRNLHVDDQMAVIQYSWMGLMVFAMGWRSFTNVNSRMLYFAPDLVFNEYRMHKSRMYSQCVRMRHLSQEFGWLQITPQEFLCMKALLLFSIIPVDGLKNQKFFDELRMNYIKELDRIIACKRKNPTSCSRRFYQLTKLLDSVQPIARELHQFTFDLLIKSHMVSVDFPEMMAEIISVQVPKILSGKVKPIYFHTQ

[1] = Table 8, second library, read-out: ERβ agonism EC50
[2] = HEK293, 24 hours, Trial 2 (believed more reliable), low = activity detected but too low for exact value

Row | Compound | EC50 (Human full-length ERβ; [1]) [µM] | EC50 (Human full-length ERα) [µM] | agonistic or antagonistic activities on GR (Human full-length GR) | further results
1 | CCCCCC[C@H](O)C1C2CC3CC1CC(c1ccc(O)cc1)(C3)C2 (stereo partly drawn) [Compound 30] | > 10 | > 10 |  | 
2 | 1-(4-hydoxyphenyl)-12-(1-hydroxyheptyl)-1,12-dicarba-closo-dodecaborane [Compound 06] |  |  | no agonistic or antagonistic activities | ERβ Efficacy (Human full-length ERβ; HEK293, 24 hours, Trial 2): 100 and 103; ERβ Log(EC50) (Human full-length ERβ; [2]): −7.71 and −7.76; EC50 (Human full-length ERβ; HEK293, 24 hours, Trial 2 (believed more reliable), low = activity detected but too low for exact value, read-out: ERβ EC50): 0.019 µM and 0.017 µM; EC50 (Human full-length ERβ; text of Example 19, luciferase reporter-based cell assay in HEK cells, read-out: EC50 at ERβ): 0.005 µM; IC50 (HEK293 cells): 18 µM and 17 µM
3 | C[C@]12CC[C@@H]3c4ccc(O)cc4CC[C@H]3[C@@H]1CC[C@@H]2O [Compound E2, Estradiol, reference compound] |  |  | no agonistic or antagonistic activities | HEK293 viability IC50 (μM) (HEK293 cells): Low
4 | CCCc1c(-c2ccc(O)cc2)nn(-c2ccc(O)cc2)c1-c1ccc(O)cc1 [PPT, Propyl pyrazole triol, reference compound] |  |  |  | ERβ EC50 (nM) (Human full-length ERβ; [2]): low; ERβ Log(EC50) (Human full-length ERβ; [2]): low; ERα Efficacy (Human full-length ERα; HEK293, 24 hours, Trial 2): 101
5 | N#CC(Cc1ccc(O)cc1)c1ccc(O)cc1 (stereo not drawn) [DPN, Diarylpropionitrile] |  |  | no agonistic or antagonistic activities | agonistic or antagonistic activities on AR (Human full-length AR): no agonistic or antagonistic activities; HEK293 viability IC50 (μM) (HEK293 cells): Low

Second part, led by results:

Row | EC50 (Human full-length ERβ; [1]) [µM] | EC50 (Human full-length ERα) [µM] | Compound | agonistic or antagonistic activities on GR (Human full-length GR) | further results
6 | > 10 | > 10 | CCCCCC[C@H](O)C1CCC(c2ccc(O)cc2)CC1 (stereo partly drawn) [Compound 27] |  | 
7 | 4.12 | > 10 | CCCCCC[C@H](O)C12CCC(c3ccc(O)cc3)(CC1)CC2 [Compound 28] |  | 
8 | > 10 | > 10 | CCCCCC[C@H](O)c1ccc(-c2ccc(O)cc2)cc1 [Compound 26] |  | 
9 | > 10 | > 10 | CCCCCC[C@@H](O)C12CCC(c3ccc(O)cc3)(CC1)CC2 [Compound 29] |  | 
